Measurements published in patent US20240382498A1, “NOVEL INHIBITOR OF HYPE-MEDIATED AMPYLATION” (Purdue Research Foundation, priority 2023, published 2024).
Read-outs that look alike come from different tables or passages of the source.

How the values were obtained:
E234G HYPE [1] = biological target: T1, E234G HYPE (Homo sapiens, UniProt Q9BVA6, E234G); experiment: Fluorescence polarization (FP) microplate autoAMPylation assay with Fl-ATP, E234G HYPE inhibitor HTS, cherrypick validation and concentration-response; assay type: biochemical; conditions: for inhibition at 10 µM: 10 μM compound
T1 construct: Δ102 (aa 103-458) HYPE constructs (WT, E234G, and E234G/H363A); His6-SUMO (cleaved yes); made in house; host or cells: E. coli BL21-DE3-RILP
T1 sequence (Q9BVA6 103-458 E234G): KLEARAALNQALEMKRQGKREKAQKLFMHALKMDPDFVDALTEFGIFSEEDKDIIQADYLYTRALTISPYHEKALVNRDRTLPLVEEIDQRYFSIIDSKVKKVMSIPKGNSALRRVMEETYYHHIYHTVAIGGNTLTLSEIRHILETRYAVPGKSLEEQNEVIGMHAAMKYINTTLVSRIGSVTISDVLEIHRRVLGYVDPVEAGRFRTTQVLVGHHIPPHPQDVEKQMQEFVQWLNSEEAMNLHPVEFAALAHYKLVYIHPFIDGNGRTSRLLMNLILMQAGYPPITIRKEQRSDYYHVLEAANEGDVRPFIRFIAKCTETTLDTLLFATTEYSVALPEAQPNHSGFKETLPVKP
Method: Buffer optimization experiments were performed by incubating 0.4 μM of Δ102 HYPE enzyme with 25 nM Fl-ATP (final concentrations) in HTS buffer (50 mM HEPES (pH 7.5), 1 mM MgCl2, 0.1% Triton X-100, 1% DMSO) in the dark at room temperature for 10 min in 384-well black bottom, black wall microplates (20 μL reaction volume). Where specified, 1 mM MgCl2 was replaced with an equivalent concentration of MnCl2, or 0.1% Triton X-100 was replaced with 0.05% or 0.01% Trion X-100. Microplates were snap centrifuged at 1000 g for 10 sec. Microplates were loaded onto a BioTek BioStack NEO2 plate-reader and assessed for fluorescence polarization with 485/530 nm filters and a 55/50 gain adjustment.
A Multidrop 384 reagent dispenser (ThermoFisher) was used to add 0.4 μM HYPE, then 25 nM Fl-ATP (final concentrations) to 384-well black/black microplates (20 μL reaction volume). Both enzyme and nucleotide were dissolved in HTS Buffer. AMPylation Reactions were incubated for 10 min at room temperature in the dark. Microplates were snap centrifuged at 1000 g for 10 sec, then transferred to BioTek BioStack NEO2 plate-reader. Reactions were assessed for fluorescence polarization with 485/530 nm filters and a 55/50 gain adjustment. Z′, S/B, and CV values were determined by fitting the data to Eq. 1, 2, and 3, respectively,
An Echo Liquid Handler (Labcyte) was used to transfer 200 nL of DMSO-dissolved compounds via acoustic-coupled ejection from 10 mM source plates into 384-well black, flat-bottom, black-walled microplates, for a final compound concentration of 10 μM. Compounds were sourced from the following libraries: DIVERset (Chembridge), CNS-Set (Chembridge). The compounds went into columns 3-22 of each plate, while columns 1, 2, 23, and 24 were reserved for equivalent volume of 100% DMSO controls.
A Multidrop 384 reagent dispenser was used to pipette 0.4 μM of WT HYPE (final concentration) dissolved in HTS Buffer into columns 1-22 of the activator plates, and columns 1 and 2 of the inhibitor plates as positive controls. 0.4 μM of E234G HYPE was similarly added to columns 3-24 of the inhibitor plates, and columns 23 and 24 of the […]. Enzymes were then incubated with either compounds or DMSO for 10 min at room temperature.
A Multidrop 384 reagent dispenser was used to pipette 25 nM of Fl-ATP (final concentration) into all wells of each plate, giving a final reaction volume of 20 μL. Plates were then incubated for 10 min at room temperature in the dark, followed by a snap centrifugation at 1000 g for 10 sec. Microplates were loaded onto BioTek BioStack stacker and read in succession for fluorescence polarization with 485/530 nm filters and a 55/50 gain adjustment. Fluorescence polarization values were converted to fractional activation (FA) or fractional inhibition FI) values according to Eq. (3) or (4), respectively,
[formula] [formula] • where μp and μn are the means of the positive (E234G HYPE) and negative (WT HYPE) controls, respectively; and x is the measured value of fluorescence polarization.
Microplate “cherrypicking” validations were performed as described above.
A Multidrop 384 reagent dispenser was used to pipette 0.4 μM of WT or E234G HYPE (final concentrations) dissolved in HTS Buffer into designated microplate wells. 10 μM of DMSO-dissolved compounds (final concentrations) or equivalent volume of 100% DMSO were manually pipetted into their specified wells. Enzymes were incubated with compounds or DMSO for 10 min at room temperature. Reagent dispenser was then used to pipette 25 nM of Fl-ATP (final concentration) into each well, followed by a 10 min incubation at room temperature in the dark. Plates were snap centrifuged at 1000 g for 10 sec, then transferred to BioTek BioStack NEO2 plate-reader. Reactions were assessed for fluorescence polarization with 485/530 nm filters and a 55/50 gain adjustment. EC50 and IC50 values were determined by fitting polarization values to Eq. (5) and (6), respectively, […]

E234G HYPE [2] = biological target: T1, E234G HYPE; experiment: Fluorescence in-gel autoAMPylation assay with E234G HYPE and Fl-ATP; assay type: biochemical; conditions: 10 μM compound
Method: 1 μM of WT HYPE (final concentration) was preincubated with 10 μM DMSO-dissolved compound (final concentration) or equivalent volume of 100% DMSO at room temperature for 10 min. Reactions were run for 20 hr at 30° C. in the dark and began with the addition of 1 μM Fl-ATP (final concentration). Alternatively, E234G HYPE AMPylation reactions were run at 10 min due to its hyperactivity. All other parameters were held constant. All reactions were performed HTS Buffer (50 mM HEPES, 1 mM MgCl2, 0.1% Triton X-100, pH 7.50). All reactions were quenched with 4×SDS loading dye, boiled for 5 min at 95° C., and samples were run on 12% SDS-PAGE gels. Gels were imaged on a Typhoon 9500 FLA imager (General Electric) for fluorescence at 473 nm. Imaged gels were then stained with Coomassie Brilliant Blue, destained, and imaged for protein concentration. Where specified, 5 μM of T229A BiP (final concentration) was added to reactions before the addition of compound.

AMPylation at in vitro saturation point of inhibition (E234G HYPE [1]; 50 μM): zero percent AMPylation
IC50 (concentration-response of E234G HYPE inhibition) (E234G HYPE [1]; FP microplate, inhibitors 0 to 200 μM): low micromolar
inhibition at 10 µM (E234G HYPE [1]; cherrypick validation, same FP assay, read-out: % Inh. Cherry-pick): 29.7%
inhibition at 10 µM (E234G HYPE [1]; initial HTS, normalized to WT and E234G HYPE DMSO controls, read-out: % Inh. HTS): 24.5%
Mean % Inh. (E234G HYPE [1]; mean of HTS and cherrypick): 27.1%
Compound: c1cn(-c2ccc(-c3nnc(-c4ccoc4)o3)cn2)cn1 [Compound I2.10]
inhibition of E234G HYPE autoAMPylation in gel (E234G HYPE [2]): consistently perturbs HYPE autoAMPylation
